Assay results from US8703479B2, “Technology and method to study microbial growth and adhesion to host-related surfaces and the host-microbiota interaction” (Universiteit Gent, priority 2009, dated 2014).

How the values were obtained:
[1] = system: mucin-adhered microbiota of the SHIME; assay: Long-term prebiotic treatment in the SHIME with adhesion modules, plate counts, Adhesion Related Prebiotic Index; parameters: species or system human; conditions: 2.5 g/L; for Adhesion Related Prebiotic Index (AR-PI): mucin-adhered microbial community, plate counts before and after the treatment
From the text: The aim of this study was to evaluate the effect of known prebiotic compounds (inulin and arabinoxylan—AX) on the microbiota associated with the gut wall in different areas of the GI tract and under long-term representative conditions. For this purpose, the adhesion module was used together with a well-validated gastrointestinal model—the Simulator of the Human Intestinal Microbial Ecosystem (SHIME). Clearly, the inherent adhesion potency, the specific growth rate, the state of mucus layer and interaction with endogenous microorganisms (adhered or in suspension) determined the microbial potency to colonize the intestinal epithelium.
The reactor setup is adapted from the system, representing the gastrointestinal tract of the adult human, as described by Molly et al. (1993). The SHIME consists of a succession of five reactors simulating the different parts of the human gastrointestinal tract. The first two reactors are of the fill-and-draw principle to simulate different steps in food uptake and digestion, with peristaltic pumps adding a defined amount of SHIME feed (140 mL 3×/day) and pancreatic and bile liquid (60 mL 3×/day), respectively to the stomach (V1) and duodenum (V2) compartment and emptying the respective reactors after specified intervals. The last three compartments are continuously stirred reactors with constant volume and pH control. Retention time and pH of the different vessels are chosen in order to resemble in vivo conditions in the different parts of the gastrointestinal tract. The overall residence time of the last three vessels, simulating the large intestine, is 76 h. Upon inoculation with fecal microbiota, these reactors simulate the ascending (V3), transverse (V4) and descending (V5) colon. Inoculum preparation, retention time, pH, temperature settings and reactor feed composition were previously described by Possemiers et al. (2004). […]
During the basal period, the SHIME reactor is operated under nominal conditions. Parameters such as short chain fatty acid (SCFA) production and ammonium production are determined 3 times/week and plate count analyses are performed once a week for selected bacterial groups (total (an) aerobes, total Clostridia, lactobacilli, bifidobacteria, total coliforms, staphylococci). The results of these analyses serve as the background values to be used to compare the measured parameters from the treatment period. […]
During the treatment period, the SHIME reactor is operated under nominal conditions, but with a modified diet containing a lower amount of starch in the medium compared to that of the basal period and the effect of a specific compound (inulin or arabinoxylan—2.5 g/L) is tested. SCFA and ammonium production are determined 3 times/week and plate count analysis is performed once a week. […]

[2] = system: suspension of the ascending colon compartment of a SHIME system; assay: Adhesion potential of a mixed microbial community under short-term prebiotic treatment in the adhesion module; conditions: ascending colon SHIME suspension in luminal chamber, data not shown
From the text: A second objective of working with the in vitro adhesion module is to explore the adhesion potential of selected microbial cultures in the presence of a complex microbial community relevant for the terminal ileum and colon respectively and to evaluate the host cellular response towards this community. To this end, a suspension of the ascending colon compartment of a SHIME system was sampled and inoculated in the luminal chamber of the adhesion module in presence of inulin with a degree of polymerization between 2 and 20, and arabinoxylans (AX) with a degree of substitution of 0.7, and a strongly varying degree of polymerization (on average 200). The short-term effect of these functional foods was evaluated.

[3] = polycarbonate membrane, 200 μm-thick mucus layer, room temperature
Description: The adhesion module was built with a functional double layer separating the completely anaerobic upper chamber (95% N2-5% CO2) from the aerobic lower chamber (95% O2-5% CO2). Oxygen concentration in the upper chamber was measured by means of a Hach Lange luminescent LDO oxygen probe. Experiments were conducted at room temperature with a 200 μm-thick mucus layer using a polycarbonate or a polyamide membrane.

[4] = Adhesion of a pure bacterial culture to the mucus-covered layer of the adhesion module; conditions: contact time […]
Description: A first objective of working with the in vitro adhesion module is to explore the adhesion potential of pure cultures of gut microorganisms vs mixed microbial communities onto a mucus-covered layer. A culture of Lactobacillus rhamnosus GG was grown in relevant medium and inoculated in the luminal chamber of the adhesion module. The luminal chamber of a second system was inoculated with an in vitro adapted microbial community originated from the ascending colon of a Simulator of the Human Intestinal Microbial Ecosystem (SHIME) reactor. The adhesion module consisted of a luminal chamber containing the growth medium and the inoculated bacterial strain and a basal chamber from which oxygen could diffuse across a semi-permeable polycarbonate membrane, which was covered on its luminal side with a mucin layer, relevant for the specific region of the gastrointestinal tract. The contact time between the inoculated bacteria and the functional layer was established in 1.5 h. […] The obtained suspension was analyzed for microbial concentration using plate counts specific for different bacterial groups. […] Although not further analyzed at this moment, also the medium and optionally present cells of the basal chamber can be sampled and analyses can be conducted to estimate the simulated host's cellular response.

## inulin
[1]
  Adhesion Related Prebiotic Index (AR-PI): 14
[2]
  effect on adhesion capacity of the investigated bacterial groups: less or no influence

## O=O [Oxygen]
[3]
  relative diffusion coefficient (DO2): 9.8.10^−6 cm^2/sec

## Lactobacillus rhamnosus GG
[4]
  factor by which adhesion to the mucin-agar layer is higher than to mucin-free agar: 6.19
[4]; mucin-agar layer, plate counts
  percentage adhesion: 15.7±3.2%

## arabinoxylan [AX]
[1]; long-term SHIME treatment
  effect on the luminal and mucin-associated bacteria compared to that of inulin: stronger and more permanent
  stimulation of the adhered lactobacilli: particularly potent
[1]
  Adhesion Related Prebiotic Index (AR-PI): 70
[2]
  effect on adhesion capacity of the investigated bacterial groups: decreased the adhesion capacity of all the investigated groups
